Laboratory results taken from US7312336B2, “Compounds with analgesic effect” (AstraZeneca Canada Inc., priority 1996, dated 2007).
Counter-ions that a name gives are not always drawn.

Biological target: δ receptor (Homo sapiens, UniProt P41143)
Settings: background statement; cited from earlier work

Chain of δ receptor (P41143 whole entry): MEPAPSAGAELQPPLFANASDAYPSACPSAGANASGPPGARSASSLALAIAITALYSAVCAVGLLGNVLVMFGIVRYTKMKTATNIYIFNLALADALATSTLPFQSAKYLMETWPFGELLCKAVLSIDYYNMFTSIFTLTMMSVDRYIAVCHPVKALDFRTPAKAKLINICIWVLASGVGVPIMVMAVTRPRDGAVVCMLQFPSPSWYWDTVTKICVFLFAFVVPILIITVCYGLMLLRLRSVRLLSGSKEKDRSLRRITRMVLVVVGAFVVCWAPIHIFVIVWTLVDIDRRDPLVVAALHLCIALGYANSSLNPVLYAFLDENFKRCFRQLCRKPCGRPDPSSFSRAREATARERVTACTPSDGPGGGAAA

Compound | selectivity for the δ receptor vs. μ receptor binding
Oc1ccc2c3c1O[C@H]1c4[nH]c5ccccc5c4C[C@@]4(O)[C@@H](C2)N(CC2CC2)CC[C@]314 [naltrindole] | < 10 fold

System: not given
Settings: not given

Compound | melting point
CCN(CC)C(=O)c1ccc(C(=C2CCN(Cc3ccc(Cl)cc3Cl)CC2)c2ccccc2)cc1 (as salt: HCl) | 95 to 110 °C
CCN(CC)C(=O)c1ccc(C(O)(c2cccc3cccnc23)C2CCN(C(=O)OC(C)(C)C)CC2)cc1 (stereo not drawn) | 100 to 105 °C
CCN(CC)C(=O)c1ccc(C(=C2CCN(C3CCCCC3)CC2)c2ccccc2)cc1 (as salt: HCl) | 105 to 109 °C
CCN(CC)C(=O)c1ccc(C(=C2CCN(Cc3ccccc3)CC2)c2ccc(Cl)cc2)cc1 (as salt: salt) | 100 to 110 °C
CCN(CC)C(=O)c1ccc(C(O)(c2cccc(OC)c2)C2CCN(C(=O)OC(C)(C)C)CC2)cc1 (stereo not drawn) | 95 to 103 °C
CCN(CC)C(=O)c1ccc(C(=C2CCN(Cc3ccccc3)CC2)c2ccccc2)cc1 (as salt: HCl) | 230 to 245 °C
CCN(CC)C(=O)c1ccc(C(=C2CCNCC2)c2cccc3cccnc23)cc1 (as salt: HCl) | > 170 °C (dec.)
CCN(CC)C(=O)c1ccc(C(=C2CCN(Cc3ccc(OC)cc3)CC2)c2ccccc2)cc1 (as salt: HCl) | 100 to 110 °C
CCN(CC)C(=O)c1ccc(C(=C2CCN(Cc3ccccc3)CC2)c2cccc(OC)c2)cc1 (as salt: HCl) | 100 to 110 °C
CCN(CC)C(=O)c1ccc(C(=C2CCNCC2)c2cccc(OC)c2)cc1 (as salt: HCl) | > 90 °C (dec.)

System: not given
Settings: background statement; cited from earlier work

Compound | analgesic activity
Oc1ccc2c3c1O[C@H]1c4[nH]c5ccccc5c4C[C@@]4(O)[C@@H](C2)N(CC2CC2)CC[C@]314 [naltrindole] | no analgesic activity
